Converted amounts (≈) assume the structure as drawn.
Key:
[1] = tested on: various yeasts and dermatophytes; assay: Antifungal MIC against various yeasts and dermatophytes (summary statement); assay type: cell-based; conditions: read-out: MIC values
Protocol: (§1) Compounds A and B of the invention were tested in standard antifungal assays and data from these tests appear in the Table 13 just below.

Aspergillus = assay: In vitro antifungal MIC in SDB (pH 5.7), Aspergillus; assay type: cell-based; conditions: 3 strains; for MIC: 48/72 hr, read-out: Geometric means MICs, 48/72 hr
Protocol: as §1
(§2) In vitro activity of compounds
(§3) A and B and Albofungin against various fungi
(§4) Geometric means MICs μg/ml, 48/72 hr)
(§5) SDB means Sabourand dextrose broth, pH 5.7;

[2] = tested on: C. albicans & C. tropicalis; assay: In vitro antifungal MIC in EMEM (pH 7.0), C. albicans & C. tropicalis; assay type: cell-based; conditions: 9 strains; for MIC: 48/72 hr, read-out: Geometric means MICs, 48/72 hr
Protocol: as §1, §2, §3, §4
EMEM means Eagle's minimum essential medium, pH 7.0.

[3] = tested on: C. albicans & C. tropicalis; assay: In vitro antifungal MIC in SDB (pH 5.7), C. albicans & C. tropicalis; assay type: cell-based; conditions: 8 strains; for MIC: 48/72 hr, read-out: Geometric means MICs, 48/72 hr
Protocol: as §1, §2, §3, §4, §5

Dermatophytes = assay: In vitro antifungal MIC in SDB (pH 5.7), dermatophytes; assay type: cell-based; conditions: 5 strains; for MIC: 48/72 hr, read-out: Geometric means MICs, 48/72 hr
Protocol: as §1, §2, §3, §4, §5

Other Candida = assay: In vitro antifungal MIC in SDB (pH 5.7), other Candida; assay type: cell-based; conditions: 6 strains; for MIC: 48/72 hr, read-out: Geometric means MICs, 48/72 hr
Protocol: as §1, §2, §3, §4, §5

In vivo LD50, iv = conditions: mpk means mg. per kg., range for compounds A and B, printed with "about"

| Compound | MIC [1] [mg/L] | MIC (Aspergillus) [mg/L] | MIC [2] [mg/L] | MIC [3] [mg/L] | MIC (Dermatophytes) [mg/L] | MIC (Other Candida) [mg/L] | LD50 (In vivo LD50, iv) [mg/kg] | Geometric means MICs, 48/72 hr (Aspergillus) [µg/mL] | Geometric means MICs, 48/72 hr [2] [µg/mL] | Geometric means MICs, 48/72 hr [3] [µg/mL] | Geometric means MICs, 48/72 hr (Dermatophytes) [µg/mL] | Geometric means MICs, 48/72 hr (Other Candida) [µg/mL] |
| --- | --- | --- | --- | --- | --- | --- | --- | --- | --- | --- | --- | --- |
| CCC(C)c1cc2c(Cl)c3c(c(O)c2c(=O)n1N)-c1c(O)c2c(c4c1C(C3)OCO4)OC1C(OC)C=CC(O)C1C2=O (stereo not drawn) [Compound A] | ≤ 0.000386 | 0.0248 (≈ 0.0415 µM) | < 2.16 | < 0.000386 | 0.00764 (≈ 0.0128 µM) | < 0.00128 | 1 to 25 | – | – | – | – | – |
| Albofungin [reference compound] | – | – | – | – | – | – | – | 0.125 | < 0.0182 | < 0.00055 | 0.0359 | < 0.00099 |
| CCC(C)c1cc2cc3c(c(O)c2c(=O)n1C)-c1c(O)c2c(c(OC)c1CC3)O[C@H]1[C@@H](C2=O)[C@@H](O)C=C[C@H]1O (stereo partly drawn) [Compound B] | – | 0.794 (≈ 1.49 µM) | < 0.135 | 0.017 (≈ 0.0319 µM) | 0.144 (≈ 0.269 µM) | 0.0312 (≈ 0.0585 µM) | 1 to 25 | – | – | – | – | – |
